The target in assay [1] is T1, Tyrosine-protein phosphatase non-receptor type 2 (Homo sapiens, UniProt P17706).
T1 sequence (P17706 whole entry): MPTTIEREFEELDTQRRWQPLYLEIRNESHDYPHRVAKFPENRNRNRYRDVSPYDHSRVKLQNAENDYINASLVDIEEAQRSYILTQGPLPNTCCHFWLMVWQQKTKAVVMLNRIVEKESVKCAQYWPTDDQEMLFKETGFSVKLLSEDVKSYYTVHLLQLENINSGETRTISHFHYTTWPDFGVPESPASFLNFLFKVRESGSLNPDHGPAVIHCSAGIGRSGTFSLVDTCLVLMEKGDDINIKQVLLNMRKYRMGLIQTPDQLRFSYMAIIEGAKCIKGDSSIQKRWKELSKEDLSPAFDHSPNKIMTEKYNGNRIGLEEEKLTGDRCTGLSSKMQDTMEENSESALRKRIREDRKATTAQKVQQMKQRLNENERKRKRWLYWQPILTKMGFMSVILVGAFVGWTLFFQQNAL
Description: Inhibition of TCPTP (unknown origin) using pNPP as substrate incubated for 30 mins by spectrophotometry.

Assay [2] deals with T2, Tyrosine-protein phosphatase non-receptor type 1 (Homo sapiens, UniProt P18031).
T2 sequence (P18031 whole entry): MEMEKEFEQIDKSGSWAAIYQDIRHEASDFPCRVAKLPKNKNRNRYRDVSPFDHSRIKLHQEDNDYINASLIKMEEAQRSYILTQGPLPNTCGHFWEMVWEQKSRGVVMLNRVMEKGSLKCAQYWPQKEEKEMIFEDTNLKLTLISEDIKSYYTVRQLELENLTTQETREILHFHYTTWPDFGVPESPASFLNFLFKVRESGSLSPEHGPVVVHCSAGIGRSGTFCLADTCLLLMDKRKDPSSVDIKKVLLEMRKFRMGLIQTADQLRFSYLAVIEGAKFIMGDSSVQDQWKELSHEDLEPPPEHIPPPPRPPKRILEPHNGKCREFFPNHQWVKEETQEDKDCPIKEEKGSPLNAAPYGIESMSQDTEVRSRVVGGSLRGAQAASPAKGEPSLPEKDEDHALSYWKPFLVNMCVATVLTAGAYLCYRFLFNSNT
Description: Allosteric inhibition of PTP1B (unknown origin) using pNPP as substrate incubated for 30 mins by spectrophotometry.

Assay [3] addresses T3, Tyrosine-protein phosphatase non-receptor type 11 (Homo sapiens, UniProt Q06124).
T3 sequence (Q06124 whole entry): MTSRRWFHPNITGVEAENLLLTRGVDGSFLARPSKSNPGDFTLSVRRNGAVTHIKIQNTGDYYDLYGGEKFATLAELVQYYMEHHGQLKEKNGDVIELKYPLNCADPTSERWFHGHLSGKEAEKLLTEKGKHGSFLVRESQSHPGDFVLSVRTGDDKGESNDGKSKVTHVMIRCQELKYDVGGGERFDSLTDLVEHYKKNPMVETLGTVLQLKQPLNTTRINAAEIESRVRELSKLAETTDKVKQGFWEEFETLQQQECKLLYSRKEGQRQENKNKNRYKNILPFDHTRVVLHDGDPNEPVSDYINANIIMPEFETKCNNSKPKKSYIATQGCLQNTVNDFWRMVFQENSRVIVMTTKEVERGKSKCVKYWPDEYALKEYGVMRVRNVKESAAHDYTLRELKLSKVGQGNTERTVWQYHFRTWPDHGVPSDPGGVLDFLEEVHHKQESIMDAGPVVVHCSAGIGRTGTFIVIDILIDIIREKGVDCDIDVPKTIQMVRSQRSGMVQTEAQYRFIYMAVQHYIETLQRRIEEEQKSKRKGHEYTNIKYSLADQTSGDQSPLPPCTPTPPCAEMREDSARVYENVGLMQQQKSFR
Description: Inhibition of SHP2 (unknown origin) using pNPP as substrate incubated for 30 mins by spectrophotometry.

Assay [4] in a line: Inhibition of PTP1B N193A/K197A mutant (unknown origin) using pNPP as substrate incubated for 30 mins by spectrophotometry. Further details: species or system Homo sapiens.

Results on 11 molecules are retold here after ChEMBL document CHEMBL6096654, “Allosteric inhibition of PTP1B by bromocatechol-chalcone derivatives” (Eur J Med Chem, 2025).

Turning to `CCOc1ccc(C(=O)/C=C/c2cc(O)c(O)c(Br)c2Br)cc1`, the IC50 in assay [1] is 17.3 µM; in assay [2] it was 3.25 µM; in assay [3], more than 20 µM; in assay [4], 9.18 µM.

On to `O=C(/C=C/c1cc(O)c(O)c(Br)c1Br)c1cccc(C(F)(F)F)c1`, for which the IC50 in assay [1] was 13.6 µM; in assay [2], 3.59 µM; in assay [3] it was more than 20 µM; in assay [4], 15.7 µM.

For `O=C(/C=C/c1cc(O)c(O)c(Br)c1)c1cc(Br)c(O)c(Br)c1`, the IC50 in assay [1] is 15 µM; in assay [2], 2.54 µM; in assay [3], more than 20 µM; in assay [4] it was 12.6 µM.

For `O=C(/C=C/c1cc(O)c(O)c(Br)c1Br)c1ccc(Cl)c(Cl)c1`, the IC50 in assay [1] is 16 µM; in assay [2], 3.02 µM; in assay [3], more than 20 µM; in assay [4], 11.4 µM.

Take `Cc1ccc(C(=O)/C=C/c2cc(O)c(O)c(Br)c2Br)cc1`: the IC50 in assay [1] was 10.3 µM; in assay [2], 2 µM; in assay [3] it was more than 20 µM; in assay [4], 10.2 µM.

`COc1ccc(C(=O)/C=C/c2cc(O)c(O)c(Br)c2Br)cc1Br`: the IC50 is 3.74 µM in assay [1], 1.43 µM in assay [2], more than 20 µM in assay [3] and 9.11 µM in assay [4].

On to `Cc1ccccc1C(=O)/C=C/c1cc(O)c(O)c(Br)c1Br`, for which the IC50 was 9.4 µM in assay [1], 1.71 µM in assay [2], more than 20 µM in assay [3] and 8.01 µM in assay [4].

Regarding `O=C(/C=C/c1cc(O)c(O)c(Br)c1Br)c1ccccc1Cl`, the IC50 in assay [1] is 5.74 µM; in assay [2], 2.17 µM; in assay [3] it was more than 20 µM; in assay [4], 10.5 µM.

For the molecule `O=C(/C=C/c1cc(O)c(O)c(Br)c1Br)c1cccc(Cl)c1`, the IC50 in assay [1] is 8.97 µM; in assay [2] it was 2.59 µM; in assay [3] it was more than 20 µM; in assay [4] it was 12.7 µM.

For `O=C(/C=C/c1cc(O)c(O)c(Br)c1Br)c1ccc(Cl)cc1`, the IC50 in assay [1] is 9.7 µM; in assay [2], 2.15 µM; in assay [3], more than 20 µM; in assay [4] it was 12.6 µM.

Turning to `COc1ccc(C(=O)/C=C/c2cc(O)c(O)c(Br)c2)cc1Br`, the IC50 in assay [1] was 13.4 µM; in assay [2] it was 2.45 µM; in assay [3], more than 20 µM; in assay [4], 9.07 µM.
